Source: patent US20020182239A1, “Composition and method for inhibiting polar capsule discharge and protecting a subject from nematocyst sting” (priority 2002, published 2002)
Where two headings read alike, the source gives them in different places.

What was measured:
[1] = test system: jellyfish Rhopilema nomadica nematocysts
[2] = test system: isolated nematocyst capsules; settings: 50 mM CaCl2; cited from earlier work

For `C=O` [formalin], the “nematocysts in skin treated with ointment base alone relative to skin treated with formalin” value ([1]; 0.1% formalin) was “more than 5 times”, the “decrease in nematocysts skin penetration” value ([1]; 0.1% formalin in ointment base vs ointment base alone) was “over 80%” and the “nematocyst discharge and skin penetration” value ([1]; formalin concentration 0.01%) was “reduces nematocyst discharge and skin penetration”. For the same compound, the “nematocyst discharge and skin penetration” value ([1]; formalin concentration 0.05%) was “reduces nematocyst discharge and skin penetration” and the “average number of nematocysts counted on a skin sample” value ([1]; ointment base containing 0.1% formalin, human skin sections, tentacles 10 seconds) was 5+/−4 nematocysts.
In the case of `[Ca+2].[Cl-].[Cl-]` [CaCl2], the “discharge of isolated nematocyst capsules” value [2] is given as “do not discharge”.
